# Source: PubChem BioAssay AID2305 (GlaxoSmithKline (GSK), 2010)
# Values joined by “and” are separate entries in the source; they are usually repeats but may differ in a detail not shown here. Identical values can stand only once.
# System: P. falciparum 3D7 growth, pLDH absorbance
# Experiment: P. falciparum 3D7 growth inhibition, dose response, strain 3D7 (AID 2305)
row,Structure (SMILES),IC50
1,CCOC(=O)C1=C(C)NC(C)=C(C(=O)OCC)C1(C(=O)OCc1ccccc1)c1cccc(C(F)(F)F)c1,1230 nM
2,Cc1ccc(CN2CCCN(Cc3cccc(NC(=O)c4cc5ccccc5s4)c3)CC2)cc1,1190 nM
3,COc1cccc2cc(C(=O)N[C@@H](CC(C)C)C(=O)N[C@H](/C=N/N3CCOC3=O)Cc3ccccc3)oc12,690 nM
4,COc1ccc(-c2ccc(CNC(=O)c3ccc(Cl)cc3)c(F)c2)cc1CN1CCCN(C)CC1,710 nM
5,CCNc1cc(C(=O)N[C@@H](Cc2ccccc2)[C@H](O)CN[C@@H]2CCc3ccccc32)cc(N2CCCCS2(=O)=O)c1,550 nM
6,CC(C)CCN1CCCN(Cc2ccc(C(=O)Nc3ccc(F)c(F)c3)cc2)CC1,940 nM
7,C=CCNS(=O)(=O)c1ccc(NC(=O)C(C)Oc2ccc([N+](=O)[O-])cc2)cc1 (centres undefined),1220 nM
8,Clc1ccc(-c2cc(-c3csc(NCCN4CCCCC4)n3)on2)cc1,990 nM
9,COc1ccccc1N1CCN(Cc2cc(C(C)C)c(C)cc2O)CC1,570 nM
10,NC(=O)c1sc(-n2cnc3ccccc32)cc1OCc1ccccc1[N+](=O)[O-],700 nM
11,COc1ccc(-c2ccccc2)cc1NC(=S)NC1CCC(CN2CCC(c3c[nH]c4ccccc34)CC2)CC1 (centres undefined),650 nM and 740 nM
12,COc1cc(Cc2cnc(N)nc2N)cc(OCCCCc2ccc([N+](=O)[O-])cc2)c1OC,990 nM
13,CCC1(C)CC(CCNCc2ccccc2O)(c2ccccc2OC)CCO1 (centres undefined),720 nM
14,O=C(Nc1cccc(CN2CCN(Cc3cccc(O)c3)CC2)c1)c1cc2ccccc2s1,1120 nM
15,FC(F)(F)COc1c(CCNCCCCNCCc2ccc3ccccc3c2OCC(F)(F)F)ccc2ccccc12,350 nM
16,Cc1ccc(Cc2cnc(CN3CCCCC3)c(O)c2)cc1,890 nM
17,Cc1ccc(C(=O)Nc2ccc(Cl)c(N3CCN(CCc4ccccc4)CC3)c2)cc1,930 nM
18,Cc1cc2nc(-c3ccc(C(=O)NCc4ccc(C(C)(C)C)cc4)cc3)[nH]c2cc1C,770 nM
19,Cc1cc(-c2ccc3c(c2)CCN(CCCOc2ccc4c(c2)CCN4C(=O)/C=C/c2ccccc2Cl)CC3)no1,1230 nM
20,Clc1ccc(-n2cnc3c(Nc4ccc(Oc5ccccc5)cc4)ncnc32)cc1Cl,750 nM
21,O=C(Nc1cccc(C(F)(F)F)c1)c1cccc(S(=O)(=O)NC2CCCN(CC3CCCCC3)C2)c1 (centres undefined),860 nM
22,Cc1nnc(N2C(=N)SC(=Cc3ccc(-c4ccc(OC(F)(F)F)cc4)o3)C2=O)s1,530 nM
23,O=C(c1ccco1)N1CCN(c2nc(-c3ccc(Cl)cc3)nc3ccccc23)CC1,930 nM
24,CCC[C@@H]([C@@H](CC(C)C)C(=O)N[C@@H](CCCCNC(=O)OCc1ccccc1)C(=O)Nc1ncccn1)N(O)C=O,60 nM
25,CCCCCC(C)C(C)c1cc(O)c2c(c1)OC(C)(C)CC2(O)c1ccnn1C (centres undefined),960 nM

row,Structure (SMILES),IC50
1,O=C(NC1CCC(CCN2Cc3ccc(Br)cc3C2)CC1)c1cccc(-c2cccnc2)c1 (centres undefined),930 nM
2,O=c1ccc2ccc(F)c3c2n1CC3CN1CCC(NCc2cccc(-c3ccccc3F)c2)CC1 (centres undefined),1100 nM
3,N#Cc1cccc(Nc2nccc(Nc3ccc(Oc4ccccc4)cc3)n2)c1,830 nM
4,COc1cc(C)nc2ccc(NC(=O)Nc3ccccc3[N+](=O)[O-])cc12,840 nM
5,Cc1cccc2[nH]c(-c3cc(-c4cn[nH]c4)cnc3N)nc12,220 nM
6,Oc1ccc2nc(NCCCc3ccccc3)nc(NCCCc3ccccc3)c2c1,400 nM
7,CS(=O)(=O)N(CC(O)Cn1c2ccc(Cl)cc2c2cc(Cl)ccc21)c1ccccc1 (centres undefined),900 nM
8,Cc1cc(OCCCN2CCC(NS(=O)(=O)c3cccc(Br)c3)C2)c2ccccc2n1 (centres undefined),1210 nM
9,C=CCNC(=O)CCCN=C(N)N,720 nM
10,COc1ccc(CCNCc2cc3c(C(C)(C)C)nn(-c4ccc(Cl)cc4)c3[nH]c2=O)cc1OC,150 nM
11,CCN(CC)C(=NCCCCCCN=C(NC(N)=NCc1ccc(Cl)cc1Cl)N(CC)CC)NC(N)=NCc1ccc(Cl)cc1Cl,220 nM
12,FC(F)(F)c1ccc2nc(-c3cccc(-c4cccc(CN5CCN(c6ccncc6)CC5)c4)c3)[nH]c2c1,160 nM
13,CCc1cc(OC)c(C(=O)NC2CCN(C[C@H](O)c3ccnc4ccc(OC)cc34)CC2)cc1Br,810 nM
14,NC1CCCN(Cc2ccc(-c3ccc(-c4nc5ccccc5[nH]4)s3)cc2)C1 (centres undefined),670 nM
15,Cn1cncc1C(=O)Nc1cccc(-c2cccc(-c3nc4ccc(F)cc4[nH]3)c2)c1,490 nM
16,COC(=O)c1cccc(NC(=O)NC2CCN(c3ccnc(Nc4ccc(F)cc4)n3)C2)c1 (centres undefined),500 nM
17,CC(=O)c1c(Nc2c(C)cc(C)cc2C)oc(C)cc1=O,480 nM
18,CC(C)C[C@H](NC(=O)c1cc2ccccc2s1)C(=O)N[C@H]1CCN(Cc2ccc(OC3CCN(C)C3)c(Cl)c2)C1 (some centres undefined),780 nM
19,COc1ccc2nccc(NC(=O)C3CCC(NCc4cnc(SC)c([N+](=O)[O-])c4)CC3)c2n1 (centres undefined),930 nM
20,CCCCCCN1CCC(NCc2cccc(C#N)c2)CC1,780 nM
21,Cc1ccc(C)c(Cn2ccc3nc(Cl)nc(Cl)c32)c1,910 nM
22,CCNC(=O)NC1CCN(Cc2c(-c3cccs3)nc3ccccc3c2C(=O)N[C@@H](C)C2CCCCC2)CC1,90 nM
23,Cc1ccc(O)cc1Nc1ccnc2cc(-c3csc(CN(C)CCN(C)C)n3)ccc12,790 nM
24,N=c1n(Cc2ccccc2)c2ccccc2n1CC(O)c1ccc(Cl)c(Cl)c1 (centres undefined),830 nM
25,Nc1c(Cl)cc(C(O)CNCCCCCOCCCc2ccc(O)c3ncccc23)cc1Cl (centres undefined),990 nM

row,Structure (SMILES),IC50
1,Cc1cccc2[nH]c(-c3ccc(-c4cccc(NC(=O)C(C)CN(C)C)c4)cc3)nc12 (centres undefined),650 nM
2,O=C(Nc1ccc(-c2cccc(-c3nc4ccc(C(F)(F)F)cc4[nH]3)c2)cc1)c1ccc(=O)[nH]n1,1070 nM
3,COc1ccc2c(CCNc3nc(SC)ncc3C(=O)NCCc3ccc(F)cc3)c[nH]c2c1,760 nM
4,COc1cc2nc(N3CCC(C(N)=O)CC3)nc(NCc3ccccc3)c2cc1OC,890 nM
5,O=C(Nc1ccc2c(c1)CCC2)c1nc(N2CCN(c3ccncc3)CC2)ccc1Cl,1380 nM
6,COc1ccc(-c2ccc(NC(=O)c3ccc(C#N)cc3)cc2)cc1CN1CCNCC1,510 nM
7,c1cncc(Oc2ccc(Nc3ccnc4cc(-c5cccc(CN6CCCCC6)c5)ccc34)cc2)c1,120 nM
8,COc1cc2nc(NCC3CCN(C(=O)c4ccc(-c5ccc(C(=O)N(C)C)cc5C)cc4)CC3)nc(N)c2cc1OC,950 nM
9,CCc1c[nH]c2c(N3CCCCC3=O)cc(C(=O)N[C@@H](Cc3ccccc3)[C@H](O)CNCc3cccc(OC)c3)cc12,170 nM
10,c1cc(CNC2Cc3ccccc3C2)cc(-c2cnc(N3CCNCC3)nc2)c1,940 nM
11,COc1cc(CNCCCNc2nc3ncccc3[nH]2)c2[nH]cc(Br)c2c1,1160 nM
12,CN1CCN(c2ccnc3ccc(NC(=O)Cc4ccc(-c5ccncc5)c5ccccc45)cc23)CC1,200 nM
13,S=C(NCCc1ccccc1)Nc1ccc2ncsc2c1,1400 nM
14,Nc1cccc(C=CC(=O)Nc2ccnc3ccccc23)c1,1060 nM
15,CC(C)N1CCN(C(=O)c2ccc(CN(C)CCCN3CCN(c4cccc(Cl)c4Cl)CC3)s2)CC1,990 nM
16,CCCCCN=C(N)c1ccc(OCCCCCOc2ccc(C(N)=NCCCCC)cc2)cc1,250 nM
17,O=C(Nc1ccc(OC2CCN(Cc3ccc(F)cc3)C2)cc1)c1ccco1 (centres undefined),1040 nM
18,CNCCc1c(O)ccc2ccccc12,800 nM
19,O=C(/C=C/c1ccc(Cl)c(Cl)c1)NCC[C@@H]1C[C@H]1CCN1CCC(c2c[nH]c3ccccc23)CC1,790 nM
20,CCC(C)C#Cc1c(C)nc(N)nc1N (centres undefined),260 nM
21,O=C(Nc1ccc(-c2cccc(-c3nc4ccccc4[nH]3)c2)cc1)N[C@@H]1C[C@H]1c1ccccc1,630 nM
22,COc1ccc(NC(=O)[C@H](CC(C)C)Nc2ccnc(NCCc3ccc(F)cc3)n2)cc1,1600 nM
23,N#Cc1ccc(N(CC(=O)NCCc2ccccc2)CC2CC2)c2ccccc12,730 nM
24,O=C(NC1CC1)c1ccc(N2CCC(COc3cccc(F)c3)CC2)nc1,1240 nM
25,NC(N)=NC(=O)Nc1cc(F)c(Cl)c(Br)c1,990 nM

row,Structure (SMILES),IC50
1,CC(C)(CNC(=O)C1CCN(CCOc2ccc(F)c(F)c2)CC1)c1nc(-c2ccc(Cl)c(O)c2)c(-c2ccncc2)[nH]1,320 nM
2,Cc1ccc2nc(C)cc(NN=Cc3cccc([N+](=O)[O-])c3)c2c1,880 nM
3,O=C(c1ccc(OCCn2ccnc2)cc1)N1CCC(c2ccc(Br)cc2)C1 (centres undefined),120 nM
4,CC(=O)Nc1ccc(OCCN(CC(C)C)c2ccc(C#N)c(C(F)(F)F)c2)c(Cl)c1,790 nM
5,Oc1ccc(-c2ccccc2)cc1CNC1CCCCC1,500 nM
6,COc1ccc2nc(C)cc(NC3Cc4ccccc4C3)c2c1,840 nM
7,COc1cc(CN2CCC(N3CCc4cc(NC(=O)c5cc(C)on5)ccc43)C2)ccc1F (centres undefined),610 nM
8,CC(=O)Nc1cccc(C(=O)Nc2nc3ccc(-c4cc(=O)[nH]c(Nc5ccccc5Cl)n4)cc3[nH]2)c1,690 nM
9,O=C(Nc1ccc(C(=O)OC[C@@H]2CCCN3CCCC[C@H]23)cc1)c1ccc(Cl)c(Cl)c1,720 nM
10,FC(F)(F)c1ccc(/C=C/c2cncnc2Nc2ccc3nc(Cc4ccccc4)[nH]c3c2)cc1,610 nM
11,CC(C)CCN1CCCN(Cc2cccc(C(=O)Nc3ccc(C(C)(C)C)cc3)c2)CC1,1100 nM
12,O=[N+]([O-])c1ccccc1C=NNc1c2c(nc3ccccc13)CCCC2,310 nM
13,O=C(Nc1ccc(-c2cccc(-c3nc4ccccc4[nH]3)c2)cc1)Nc1ccc2c(c1)OCO2,250 nM
14,CC(C)(C)OC(=O)N(Cc1cc(-n2nnnc2C(F)(F)F)ccc1O)[C@H]1CCCN(C(=O)OC(C)(C)C)[C@H]1c1ccccc1,720 nM
15,CC(C)(CNCc1cc(Cl)cc(Cl)c1)c1nc(-c2ccc(Cl)c(O)c2)c(-c2ccnc(N)n2)[nH]1,1010 nM
16,O=C(NC1CCCCN(Cc2ccccc2O)C1)c1cccc(C(F)(F)F)c1 (centres undefined),790 nM
17,CCNC[C@H]1CCCN1CCOc1ccc(-n2cnc3cc(-c4ccc(Cl)cc4)sc3c2=O)cc1OC,810 nM
18,CNc1cc(-c2ccc3ccnc(N)c3c2)nc(N)n1,120 nM
19,O=[N+]([O-])c1ccccc1C=NNc1ccnc2ccc(C(F)(F)F)cc12,710 nM
20,Oc1ccccc1CN1CCC(CCOC(c2ccccc2)c2ccc(Cl)cc2)CC1 (centres undefined),740 nM
21,CN(C)Cc1c(O)ccc2[nH]c(-c3cccc(F)c3)nc12,1000 nM
22,O=[N+]([O-])c1ccc(C2=NN(S(=O)(=O)c3c(Cl)cc(Cl)cc3Cl)CCCC2)cc1,130 nM
23,Cc1cc(CNCCCCCCCNCc2ccc(-c3ccccc3)cc2)ccc1O,490 nM
24,COc1ccc(NC(=O)/C=C/c2ccccc2Cl)cc1OCCN1CCC(Cc2cc3ccccc3[nH]2)CC1,900 nM
